Values of other authors, collected in patent US20240269237A1, “PHARMACEUTICAL COMPOSITION AND KIT COMPRISING AN IMMUNOMODULATORY SUBSTANCE FOR TREATING DISEASES” (ellennbe GmbH, priority 2021, published 2024).

Columns and labels:
perfusion of the skin = details: healthy subjects
rheumatoid arthritis = details: for adverse effects of earlier treatment: Patient 7, history, regimen of MTX and upadacitinib tried a second time
[1] = system: ankylosing spondylitis (Bechterew's disease); details: for tolerability of earlier TNF-α inhibitors: human, in vivo; for effect of earlier treatment with biologics: Patient 11, history, within half a year the biologics lost their effect

## COC(=O)c1cccnc1 [MN, methyl nicotinate]
Perfusion of the skin; 50 μl of 20 mmol/l topically
  perfusion response: reproducible perfusion response
Perfusion of the skin; topical application
  time course of perfusion increase: reaches a stable plateau phase after five minutes

## CN(Cc1cnc2nc(N)nc(N)c2n1)c1ccc(C(=O)N[C@@H](CCC(=O)O)C(=O)O)cc1 [MTX, methotrexate]
Rheumatoid arthritis
  adverse effects of earlier treatment: severe adverse effects (tendency to fibrosis in the lungs and sinusitis)

## CC[C@@H]1CN(C(=O)NCC(F)(F)F)C[C@@H]1c1cnc2cnc3[nH]ccc3n12 [upadacitinib]
Rheumatoid arthritis
  adverse effects of earlier treatment: severe adverse effects (tendency to fibrosis in the lungs and sinusitis)

## Remicade®: TNF-α inhibitor
[1]
  tolerability of earlier TNF-α inhibitors: strong adverse side effects

## Symponi®: TNF-α inhibitor
[1]
  tolerability of earlier TNF-α inhibitors: strong adverse side effects

## adalinumab [Humira®]
[1]
  effect of earlier treatment with biologics: little effect from the outset

## etanercept [Enbrel®]
[1]
  tolerability of earlier TNF-α inhibitors: strong adverse side effects

## golimumab [Simponi®]
[1]
  effect of earlier treatment with biologics: little effect from the outset

## tocilizumab
Rheumatoid arthritis; Patient 7, 162 mg per week
  efficacy of basic treatment: only partially efficient
